Measured values as given in patent US20020111360A1, “Quinazoline formulations and therapeutic use thereof” (PARKER HUGHES INSTITUTE, priority 1999, published 2002).
Counter-ions that a name gives are not always drawn.

Columns and labels:
[1] = Solubility of WHI-P131 free base and chloride salt in various liquids; assay type: physicochemical
Experimental: The solubility of WHI-P131 free base was measured in water, propylene glycol, polyethylene glycols (PEGs), ethanol, and triglycerides. The solubility of WHI-P131 is very poor in water. It was about 35 times more soluble in C8-C10 medium chain triglyceride (Captex 300) than in water. It was much more soluble in ethanol and hydrophilic cosolvents such as propylene glycol and PEGs.
Parallel solubility measurements were also carried out using WHI-P131 chloride salt. […] In contrast, the solubility of WHI-P131 chloride decreased drastically in all other liquids. […] This fact underscores the importance of knowing the solubility profile of both the free base and salt forms of an ionizable compound when making choices of its delivery vehicles.

Row | Compound | melting point | also measured
1 | COc1cc2ncnc(Nc3cc(Cl)ccc3O)c2cc1OC (as salt: salt) [P-93, 4-(3′-Chlooro-6′-hydroxylphenyl)amino-6,7-dimethoxyquinazoline] | 295 °C (dec.) | –
2 | COc1cc2ncnc(Nc3ccc(C)c(Br)c3)c2cc1OC (as salt: salt) [P-111, 4-(3′-Bromo-4′-methylphenyl)-amino-6,7-dimethoxyquinazoline] | 225 to 228 °C | –
3 | COc1cc2ncnc(Nc3c(F)c(F)c(Br)c(F)c3F)c2cc1OC (as salt: salt) [P-144, 4-(2′,3′,5′,6′-Tetrafluoro-4′-bromolphenyl)-amino-6,7-dime-thoxyquinazoline] | 180 to 182 °C | –
4 | COc1cc2ncnc(Nc3ccc4c(c3)Cc3cc(Br)ccc3-4)c2cc1OC (as salt: salt) [P-160, 4-[(7′-Bromofluorene)-2]-amino-6,7-dimethoxyquinazoline] | 254 to 256 °C | –
5 | COc1cc2ncnc(Nc3ccc(Br)cc3CO)c2cc1OC (as salt: salt) [P-190, 4-(4′-Bromo-6′-hydroxymethylphenyl)-amino-6,7-dimethoxyquinazoline] | 222 to 223 °C | –
6 | COc1cc2ncnc(Nc3cc(Br)c(C)cc3Br)c2cc1OC (as salt: salt) [P-211, 4-(2′,5′-Dibromo-4′-methylphenyl)-amino-6,7-dimethoxyquinazoline] | 282 to 284 °C | –
7 | COc1cc2ncnc(Nc3ccccc3Br)c2cc1OC (as salt: salt) [P-261, 4-(2′-Bromophenyl)-amino-6,7-dimethoxyquinazoline] | 241 to 243 °C | –
8 | COc1cc2ncnc(Nc3ccccc3I)c2cc1OC (as salt: salt) [P-270, 4-(2′-Iodophenyl)-amino-6,7-dimethoxyquinazoline] | 225 to 230 °C | –
9 | COc1cc2ncnc(Nc3c(O)ccc4ccccc34)c2cc1OC (as salt: salt) [P-275, 4-(2′-Naphthol-1)-amino-6,7-dimethoxyquinazoline] | 218 to 220 °C | –
10 | COc1cc2ncnc(Nc3ccc(O)cc3Cl)c2cc1OC (as salt: salt) [P-278, 4-(4′-Hydroxyl-2′-chlorophenyl)-amino-6,7-dimethoxy-quinazoline] | 245 to 247 °C | –
11 | COc1cc2ncnc(Nc3cccc4c(O)cccc34)c2cc1OC (as salt: salt) [P-293, 4-(1′-Hydroxy-naphthyl-5′)-amino-6,70-dimethoxyquina-zoline] | 204 to 205 °C | –
12 | COc1cc2ncnc(Nc3cc(I)c(O)c(I)c3)c2cc1OC (as salt: salt) [P-294, 4-(4′-Hydroxy-3,5-diiodophenyl)-amino-6,7-dimethoxy-quinazoline] | 259 to 260 °C | –
13 | COc1cc2ncnc(Nc3ccc(O)c(I)c3)c2cc1OC (as salt: salt) [P-299, 4-(4′-Hydroxy-3′-iodophenyl)-amino-6,7-dimethoxyquinazoline] | 248 to 250 °C | –
14 | COc1cc2ncnc(Nc3ccc(I)cc3)c2cc1OC (as salt: salt) [P-300, 4-(4′-Iodophenyl)-amino-6,7-dimethoxyquinazoline] | 240 to 242 °C | –
15 | COc1cc2ncnc(Nc3ccc(C(c4ccc(N)cc4)(C(F)(F)F)C(F)(F)F)cc3)c2cc1OC (as salt: salt) [P-352, 4-{4′-[2″-(4″′-Aminophenyl)-hexafluoropropyl]phenyl}-amino-6,7-dimethoxyquinazoline] | 280 to 282 °C | –
16 | COc1cc2ncnc(Nc3ccccc3OC(F)(F)F)c2cc1OC (as salt: salt) [P-365, 4-(2′-Trifluoromethoxylphenyl)-amino-6,7-dimethoxyquinazoline] | 235 to 237 °C | –
17 | COc1cc2ncnc(Nc3cc(C(F)(F)F)cc(C(F)(F)F)c3)c2cc1OC (as salt: salt) [P-366, 4-(3′,5′-Ditrifluoromethylphenyl)-amno-6,7-dimethoxyquinazoline] | 270 to 272 °C | –
18 | COc1cc2ncnc(Nc3ccc(O)c(F)c3)c2cc1OC (as salt: salt) [P-369, 4-(4′Hydroxyl-3′-fluorophenyl)-amino-6,7-dimethoxyquinazoline] | 268 to 270 °C | –
19 | COc1cc2ncnc(Nc3cc(F)c(O)c(F)c3)c2cc1OC (as salt: salt) [P-408, 4-(4′-Hydroxyl-3′,5′-difluorophenyl)-amino-6,7-dimethoxy-quinazoline] | 228 to 230 °C | –
20 | COc1cc2ncnc(Nc3ccc(Cl)c4ccccc34)c2cc1OC (as salt: salt) [P-415, 4-(4′-Chloronaphthy-1′)-amino-6,7-dimethoxyquinazoline] | 245 to 248 °C | –

Row | Compound | melting point | also measured
21 | COc1cc2ncnc(Nc3ccc(Br)cc3C(=O)O)c2cc1OC [P-88, 4-(4′-Bromo-2′-caboxylphenyl)-amino-6,7-dimethoxyquinazoline] | > 300 °C | –
22 | COc1cc2ncnc(Nc3ncccc3O)c2cc1OC [P-150, 4-[(3′-Hydroxylpyridine)-2′]-amino-6,7-dimethoxyquinazoline] | 185 to 187 °C | –
23 | COc1cc2ncnc(Nc3ccc(O)c(C(=O)O)c3)c2cc1OC [P-182, 4-(4′-Hydroxyl-3′-Carboxyphenyl)-amino-6,7-dimethoxyquinazoline] | > 300 °C | –
24 | COc1cc2ncnc(Nc3cc(Cl)c(O)c(Cl)c3)c2cc1OC [P-189, 4-(4′-Hydroxyl-3′,5′-dichlorophenyl)amino-6,7-dimethoxyquinazoline] | 293 to 295 °C | –
25 | COc1cc2ncnc(Nc3ccccc3CO)c2cc1OC [P-191, 4-(6′-Hydroxymethylphenyl)-amino-6,7-dimethosyquinazoline] | 215 to 218 °C | –
26 | COc1cc2ncnc(Nc3ccc(O)cc3O)c2cc1OC [P-192, 4-(2′,4′-Dihydroxyphenyl)-amino-6,7-dimethoxyquinazoline] | 240 °C (dec.) | –
27 | COc1cc2ncnc(Nc3ccc(C)c(Br)c3Br)c2cc1OC [P-210, 4-(2′,3′-Dibromo-4′-methylphenyl)-amino-6,7-dimethoxyquinazoline] | 233 to 236 °C | –
28 | COc1cc2ncnc(Nc3cc(Br)c(C)c(Br)c3)c2cc1OC [P-212, 4-(3′,5′-Dibromo-4′-methylphenyl)-amino-6,7-dimethoxyquinazoline] | 275 to 279 °C | –
29 | COc1cc2ncnc(Nc3cnc(O)nc3O)c2cc1OC [P-215, 4-(2′,4′-Dihydroxyl-1′,3′-diazine-5′)-amino-6,7-dime-thoxyquinazoline] | > 300 °C | –
30 | COc1cc2ncnc(Nc3c(Br)cc(Br)cc3Br)c2cc1OC [P-222, 4-(2′,4′,6′-Tribromophenyl)amino-6,7-dimethoxyquinazoline] | 250 to 255 °C | –
31 | COc1cc2ncnc(Nc3ccc(C(F)(F)F)cc3)c2cc1OC [P-223, 4-(4′-Trifluoromethylphenyl)-amino-6,7-dimethoxyquinazoline] | 243 to 245 °C | –
32 | COc1cc2ncnc(Nc3ccccc3C(F)(F)F)c2cc1OC [P-228, 4-(2′-Trifluoromethylphenyl)-amino-6,7-dimethoxyquinazoline] | 242 to 245 °C | –
33 | COc1cc2ncnc(Nc3c(Br)cc(C)cc3Br)c2cc1OC [P-241, 4-(2′,6′-Dibromo-4′-methylphenyl)-amino-6,7-dimethoxyquinazoline] | 235 to 237 °C | –
34 | COc1cc2ncnc(Nc3c(Br)cccc3Br)c2cc1OC [P-262, 4-(2′,6′-Dibromophenyl)-amino-6,7-dimethoxyquinazoline] | 243 to 246 °C | –
35 | COc1cc2ncnc(Nc3ccc(Br)cc3Br)c2cc1OC [P-263, 4-(2′,4′-Dibromophenyl)-amino-6,7-dimethoxyquinazoline] | 257 to 262 °C | –
36 | COc1cc2ncnc(Nc3ccc(CCO)cc3)c2cc1OC [P-265, 4-[4′-(2″-Hydroxylethylphenyl)]-amino-6,7-dimethoxyqui-nazoline] | 235 to 240 °C | –
37 | COc1cc2ncnc(Nc3cccc(C(C)O)c3)c2cc1OC (centres unmarked) [P-276, 4-[3′-(1″-Hydroxyethyl)]-amino-6,7-dimethoxyquinazoline] | 215 to 218 °C | –
38 | COc1cc2ncnc(Nc3cc(-c4ccccc4)c(O)c(-c4ccccc4)c3)c2cc1OC [P-277, 4-(4′-Hydroxy-3′,5′-diphenylphenyl)-amino-6,7-dime-hoxyquinazoline] | 255 to 257 °C | –
39 | COc1cc2ncnc(Nc3ccc(O)cc3)c2cc1OC [WHI-P131 Free base, 4-(4′-Hydroxylphenyl)-amino-6,7-dimethoxyquinazoline] | – | Solubility ([1]; Captex 300): 0.88 ± 0.08 mg/mL; Solubility ([1]; Ethanol): 18.6 ± 0.5 mg/mL; Solubility ([1]; PEG200): >100 mg/mL; Solubility ([1]; PEG300): >185 mg/mL; Solubility ([1]; Propylene glycol): 19.5 ± 0.7 mg/mL; Solubility ([1]; Water): 0.025 mg/mL; Solubility ([1]; ethanol): 1.86%; Solubility ([1]; polyethylene glycols): greater than 10%; Solubility ([1]; propylene glycol): 1.95%
